Reference: patent US9458430B2, “Differentiation of pluripotent stem cells” (Janssen Biotech, Inc., priority 2010, dated 2016)

How the values were obtained:
Format in all cases: cell-based
[1] = system: human embryonic stem cells line H1; test: Real-time PCR of pancreatic related genes in H1 cells differentiated by the Example 1 protocol
Description: FIGS. 1A to 1H show real-time PCR data obtained from samples obtained from cells at stages III-IV, of the protocol outlined in Example 1, for PAX4 (FIG. 1A), NGN3 (FIG. 1B), PDX1 (FIG. 1C), NEUROD (FIG. 1D), NKX6.1 (FIG. 1E), CDX2 (FIG. 1F), and Albumin (FIG. 1G). The y-axis is fold expression over undifferentiated H1 cells.
Cells of the human embryonic stem cells line H1 (p40-p50) were cultured on MATRIGEL®-coated dishes (1:30 dilution) (BD Biosciences; Cat #356231) in MEF-CM (mouse embryonic fibroblast conditioned medium) as colonies and differentiated into pancreatic endocrine precursor cells as follows: • a. Stage I (Definitive Endoderm): Human embryonic stem cells were cultured in RPMI medium supplemented with 2% fatty acid-free BSA (Catalog#68700, Proliant, IA), and 100 ng/ml activin A (R&D Systems, MN) plus 20 ng/ml WNT-3a (Catalog#1324-WN-002, R&D Systems, MN) plus 8 ng/ml of bFGF (Catalog#100-18B, PeproTech, NJ), for one day, followed by treatment with RPMI medium supplemented with 2% BSA and 100 ng/ml activin A plus 8 ng/ml of bFGF for an additional two days, then • b. Stage II (Primitive gut tube): Cells were treated with RPMI+2% fatty acid-free BSA and 50 ng/ml FGF7, for two days, then • c. Stage III (Posterior foregut): Cells were treated with DMEM/High-Glucose supplemented with 1:200 dilution of ITS-X (Invitrogen, CA) and 0.1% BSA (Lipid Rich) (Invitrogen, Ca No. 11021-045), 50 ng/ml FGF7, 0.25 μM SANT-1, 2 μM Retinoic acid (RA) (Sigma, MO), 100 ng/ml of Noggin (R & D Systems, MN), 2.5 μM 4-[4-(4-Fluorophenyl)-1-(3-phenylpropyl)-5-pyridin-4-yl-1H-imidazol-2-yl]but-3-yn-1-ol (a P38 inhibitor disclosed in U.S. Pat. No. 6,521,655), and activin A at 20 ng/ml for five days, then • d. Stage IV (Pancreatic endocrine precursor): Cells were treated with DMEM/High-Glucose supplemented with 1:200 dilution of ITS-X (Invitrogen, CA) and 0.1% BSA (Invitrogen, Ca), 100 ng/ml Noggin, 1 μM ALK5 inhibitor (SD-208, disclosed in Molecular Pharmacology 2007 72:152-161), 500 nM TPB (α-Amyloid Precursor Protein Modulator) (Catalogue #565740, EMD, CA), and 10-100 nM of the CYP26A inhibitor N-{4-[2-Ethyl-1-(1H-1,2,4-triazol-1-yl)butyl]phenyl}-1,3-benzothiazol-2-amine, and 10-100 nM Vitamin A (Catalogue#R7632, Sigma, MO) for four days, or
In some of the cultures, the Stage IV was extended to six days. mRNA was isolated at stages III and IV for real-time PCR analysis of pancreatic related genes.

[2] = system: human embryonic stem cells line H1; test: NGN3 immunostaining at stage IV of the Example 1 protocol; conditions: 100 nM of the CYP26A inhibitor vs control
[3] = system: human embryonic stem cells line H1; test: Real-time PCR of pancreatic related genes in H1 cells differentiated by the Example 2 protocol
Description: FIGS. 2A to 2E show real-time PCR data obtained from samples obtained from cells at stages III-IV, of the protocol outlined in Example 2, for NGN3 (FIG. 2A), NEUROD (FIG. 2B), CDX2 (FIG. 2C), NKX6.1 (FIG. 2D) and, PDX1 (FIG. 2E). The y-axis is fold expression over undifferentiated H1 cells.
Cells of the human embryonic stem cells line H1 (p40-p52) were seeded as single cells at a density of 100000 cells/cm^2 on MATRIGEL®-coated dishes (1:30 dilution) (BD Biosciences; Cat #356231) in MEF-CM (mouse embryonic fibroblast conditioned media supplemented) with 16 ng/ml of FGF2 (Catalog#100-18B, PeproTech, NJ) and 10 μM of Y27632 (Rock inhibitor, Catalogue #Y0503, Sigma, MO). 72 hours post seeding, cultures were differentiated into definitive endoderm (DE) as follows: • a. Stage I (Definitive Endoderm): Human embryonic stem cells were treated with MCDB-131 (Catalogue#10372-019, Invitrogen, CA) medium supplemented with 2% fatty acid-free BSA (Catalog#68700, Proliant, IA), 0.0025 g/ml sodium bicarbonate (Catalogue #S3187, Sigma, MO), 1× GlutaMax™ (Catalogue #35050-079, Invitrogen, Ca) and 100 ng/ml activin A (R&D Systems, MN) plus 20 ng/ml WNT-3a (Catalog#1324-WN-002, R&D Systems, MN) for one day, followed by treatment with MCDB-131 medium supplemented with 2% BSA, sodium bicarbonate, Glutamax, and 100 ng/ml activin A for an additional three days, then • b. Stage II (Primitive gut tube): Cells were treated with MCDB-131+2% fatty acid-free BSA and 50 ng/ml FGF7 and for three days, then • c. Stage III (Posterior foregut): Cells were treated with MCDB-131/High-Glucose (25 mM glucose) supplemented with 1:200 dilution of ITS-X (Invitrogen, CA), 1× GlutaMax™ (Catalogue #35050-079, Invitrogen, Ca), 0.0025 g/ml sodium bicarbonate (Catalogue #S3187, Sigma, MO), 0.1% BSA (Lipid Rich) (Invitrogen, Ca No. 11021-045), 50 ng/ml FGF7, 0.25 μM SANT-1, 2 μM Retinoic acid (RA) (Sigma, MO), 2.5 μM 4-[4-(4-Fluorophenyl)-1-(3-phenylpropyl)-5-pyridin-4-yl-1H-imidazol-2-yl]but-3-yn-1-ol (a p38 inhibitor, disclosed in U.S. Pat. No. 6,521,655), 100 nM LDN-193189 (BMP receptor inhibitor, Catalogue #04-0019, Stemgent, CA), 500 nM of the CYP26A inhibitor N-{4-[2-Ethyl-1-(1H-1,2,4-triazol-1-yl)butyl]phenyl}-1,3-benzothiazol-2-amine, and activin A at 20 ng/ml for four days, then • d. Stage IV (Pancreatic endocrine precursor): Cells were treated MCDB-131/High-Glucose (25 mM glucose) supplemented with 1:200 dilution of ITS-X (Invitrogen, CA) and 0.1% BSA (Invitrogen, Ca), 1× GlutaMax™ (Catalogue #35050-079, Invitrogen, Ca), 0.0025 g/ml sodium bicarbonate (Catalogue #S3187, Sigma, MO), 1 μM ALK5 inhibitor (SD-208, disclosed in Molecular Pharmacology 2007 72:152-161), 500 nM PDBu (PKC activator) (Catalogue #P1269, Sigma, MO), 100 nM LDN-193189 (BMP receptor inhibitor, Catalogue #04-0019, Stemgent, CA), 0.25 μM SANT-1 (#S4572, Sigma, MO), and 500 nM of the CYP26A inhibitor N-{4-[2-Ethyl-1-(1H-1,2,4-triazol-1-yl)butyl]phenyl}-1,3-benzothiazol-2-amine for seven days, or • e. Stage IV (Pancreatic endocrine precursor): Cells were treated MCDB-131/High-Glucose (25 mM glucose) supplemented with 1:200 dilution of ITS-X (Invitrogen, CA) and 0.1% BSA (Invitrogen, Ca), 1× GlutaMax™ (Catalogue #35050-079, Invitrogen, Ca), 0.0025 g/ml sodium bicarbonate (Catalogue #S3187, Sigma, MO), 1 μM ALK5 inhibitor (SD-208, disclosed in Molecular Pharmacology 2007 72:152-161), 500 nM PDBu (PKC activator) (Catalogue #P1269, Sigma, MO), 100 nM LDN-193189 (BMP receptor inhibitor, Catalogue #04-0019, Stemgent, CA), 0.25 μM SANT-1 (#S4572, Sigma, MO) for seven days.
mRNA was isolated at stages III and IV for real-time PCR analysis of pancreatic related genes. Similar to the results observed in Example 1 above, addition of CYP26A inhibitor to stage IV enhanced expression of pancreatic endocrine precursor markers, such as NGN3 and NeuroD. (See FIG. 2A to 2E).

[4] = added at stage IV, 10-100 nM, mRNA, real-time PCR, dose dependent
[5] = added at stage IV, mRNA, real-time PCR
[6] = 500 nM added to both stages III and IV
[7] = 500 nM added to stage III in the presence of retinoic acid

Row | Molecule | expression of endocrine precursor marker NGN3 [1, 4] | expression of endocrine precursor marker NeuroD [1, 4] | expression of endocrine precursor marker Pax4 [1, 4] | expression of pancreatic endoderm marker NKX6.1 [1, 4] | expression of CDX2 (an intestinal marker) [1, 5] | expression of albumin (a liver marker) [1, 5] | expression of NGN3 by immunostaining [2] | expression of NGN3 [3, 6] | expression of NeuroD [3, 6] | expression of CDX2 [3, 7] | expression of NKX6.1 [3, 7] | expression of PDX-1 [3, 7] | expression of pancreatic endocrine precursor marker NGN3 ([3]; 500 nM added to stage IV) | expression of pancreatic endocrine precursor marker NeuroD ([3]; 500 nM added to stage IV) | expression of pancreatic endoderm or endocrine precursor markers ([1]; vitamin A 10-100 nM added along with the CYP26A inhibitor at stage IV)
1 | CCC(CC)[C@H](c1ccc(Nc2nc3ccccc3s2)cc1)n1cncn1 (stereo in doubt) [CYP26A inhibitor, N-{4-[2-Ethyl-1-(1H-1,2,4-triazol-1-yl)butyl]phenyl}-1,3-benzothiazol-2-amine] | significantly boosted | significantly boosted | significantly boosted | significantly boosted | decreased | decreased | significant boost | further enhanced | further enhanced | enhancing | significantly down regulated | significantly down regulated | enhanced | enhanced | 
2 | Vitamin A |  |  |  |  |  |  |  |  |  |  |  |  |  |  | did not significantly modify
